Test in all cases: DTP human tumour cell line panel, 48 h
Experiment [1] has as its system HCC-2998 colon.
Experiment [2] relates to NCI-H23 lung.
The test system of experiment [3] is SNB-19 CNS.
The test system of experiment [4] is U251 CNS.
Experiment [5] concerns LOX IMVI melanoma.
For experiment [6], the system named is SK-MEL-5 melanoma.
Experiment [7] has as its system NCI-H460 lung.
Experiment [8] relates to SF-295 CNS.
Experiment [9] deals with CCRF-CEM leukemia.
For experiment [10], the system named is SK-MEL-2 melanoma.

The structures appear in SMILES notation.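 Where inhibition never reached the appropriate level, the endpoint shown equals the highest concentration tested. Otherwise, values were interpolated linearly from a five-concentration, 48-hour dose response in 96-well plates. GI50: concentration for 50% inhibition of growth. TGI: concentration producing complete growth inhibition.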 Bounds are passed on as bounds.

On to `O=C1CCCC2=C1CC1=C(CCCC1=O)N2c1ccc(Cl)cc1`, for which the TGI in experiment [1], in experiment [2], in experiment [3], in [4], in experiment [5] and in experiment [6] was greater than 100 µM each time. Further, the TGI in [7], in experiment [8] and in experiment [9] was greater than 100 µM in each case.

For `O=C(O)CCCN1C(=O)/C(=C/C(Cl)=C/c2ccccc2)SC1=S`, the GI50 in [10] is 2.47 µM; in experiment [1] it was 1.83 µM; in experiment [2], 2.34 µM; in [3], 2.78 µM; in experiment [4], 1.8 µM; in [5] it was 0.383 µM. Moreover, the GI50 in experiment [6] was 1.72 µM; in [7], 2.47 µM; in experiment [8], 2.57 µM; in [9] it was 0.786 µM. Also, the TGI is 7.61 µM in experiment [10]; 3.41 µM in experiment [1]; 6.27 µM in experiment [2]; 10.9 µM in experiment [3]; 4.63 µM in experiment [4]; 1.38 µM in experiment [5]. The TGI in [6] amounted to 3.16 µM; in experiment [7], 6.76 µM; in [8], 7.16 µM; in experiment [9] it was 10.2 µM.

Turning to `COc1ccc(-n2cc(-c3cc(OC)c(OC)c(OC)c3)nc2SCc2cccc(C#N)c2)cc1OC`, the GI50 in experiment [10], in experiment [1], in experiment [2], in [3], in [4] and in experiment [5] was greater than 100 µM in each case. Moreover, the GI50 in [6] was 71.8 µM; in experiment [7], greater than 100 µM; in [8], greater than 100 µM; in experiment [9], greater than 100 µM. The TGI in [10], in [1], in experiment [2], in [3], in experiment [4] and in experiment [5] was greater than 100 µM in each case. Further, the TGI in experiment [6], in [7], in [8] and in experiment [9] was greater than 100 µM throughout.

Regarding `O=S(=O)(F)Cc1ccccc1`, the TGI in [10], in [1], in experiment [2], in experiment [3], in experiment [4] and in experiment [5] was greater than 100 µM throughout. The TGI in [6], in [7], in experiment [8] and in experiment [9] was greater than 100 µM in each case.

As to `CCN(Cc1ccc(Cl)c(Cl)c1)c1ccc2nc(N)nc(N)c2c1C`, the GI50 was 1.48 µM in experiment [10]; 0.039 µM in experiment [1]; 0.0284 µM in experiment [2]; 0.0141 µM in experiment [3]; less than 0.01 µM in [6]; less than 0.01 µM in experiment [7]. The GI50 in experiment [8] is less than 0.01 µM; in experiment [9], 0.0252 µM. In addition, the TGI was 3.02 µM in experiment [10]; 1.24 µM in experiment [1]; 1.49 µM in [2]; 1.51 µM in experiment [3]; 1.45 µM in experiment [6]; 1.47 µM in experiment [7]. In experiment [9], this molecule returned a TGI of 6.3 µM.

In the case of `O=C(CSSCC(=O)c1ccc(Cl)cc1)c1ccc(Cl)cc1`, the GI50 in experiment [10] was 3.8 µM; in experiment [1], 8.56 µM; in [2] it was 8.22 µM; in experiment [3], 4.94 µM; in experiment [4] it was 4.16 µM; in experiment [5], 2.6 µM. Also, the GI50 in experiment [6] is 3.32 µM; in [7], 3.35 µM; in experiment [8], 2.58 µM; in [9] it was 3.39 µM. Besides, the TGI in [10] stood at 15.1 µM; in experiment [1] it was 22.2 µM; in [2], 30.3 µM; in experiment [3] it was 40.3 µM; in [4], 17.5 µM; in experiment [5] it was 8.2 µM. The TGI is 10.5 µM in experiment [6], 26.9 µM in experiment [7], 15.2 µM in experiment [8] and greater than 100 µM in [9].

Consider `Nc1n[n+]([O-])c2ccc(Cl)cc2[n+]1[O-]`, for which the TGI in experiment [10] was greater than 100 µM; in experiment [1], 55.5 µM; in experiment [2], 46.4 µM; in experiment [3] it was greater than 100 µM; in [4] it was 67.3 µM; in [5] it was greater than 100 µM. Moreover, the TGI in [6] was 16.5 µM; in experiment [8], greater than 100 µM; in [9], greater than 100 µM.

Consider `O=C(n1c2ccccc2c2n[nH]c(=S)nc21)C(F)(F)F`, for which the total growth inhibition concentration (TGI) in experiment [1], in experiment [2], in experiment [3], in experiment [4], in experiment [5] and in experiment [6] was greater than 100 µM each time. Moreover, the TGI in experiment [7], in [8] and in [9] was greater than 100 µM in each case.

For the molecule `CCN(CC)CCC(=O)/C=C/c1ccc(Cl)c(Cl)c1`, the total growth inhibition concentration (TGI) in [10], in experiment [1], in [2], in [3], in experiment [4] and in experiment [7] was greater than 10 µM throughout. Also, the TGI in experiment [8] was greater than 10 µM; in experiment [9], 7.18 µM.

With `CCOC(=O)c1ccc(N=Cc2ccc(N(CCC#N)S(=O)(=O)c3ccccc3)cc2C)cc1`, the TGI in [10] was greater than 100 µM; in experiment [1], 58.1 µM; in experiment [2], greater than 100 µM; in experiment [3] it was greater than 100 µM; in [4], greater than 100 µM; in experiment [5], greater than 100 µM. The TGI in [6], in experiment [8] and in [9] was greater than 100 µM each time.

As for `COc1ccc(-c2cn(C)c3c2-n2cccc2C3=O)cc1O`, the GI50 was 19.7 µM in experiment [10]; 2.48 µM in [1]; 3.22 µM in experiment [2]; 8.61 µM in experiment [4]; 3.71 µM in experiment [5]; 1.4 µM in [6]. Further, the GI50 was 3.06 µM in experiment [7], 5.22 µM in [8] and 3.66 µM in experiment [9]. The TGI stood at 55.3 µM in [10]; 6.46 µM in [1]; 16.5 µM in [2]; 29.8 µM in experiment [4]; 13.3 µM in [5]; 5.93 µM in experiment [6]. Also, the values for the TGI in [7], in [8] and in experiment [9] were 20 µM, 21.3 µM and 25.4 µM, respectively.

On to `O=C(c1ccccc1)c1nc2c(Cl)ccc(Cl)c2cc1C(Br)Br`, for which the TGI worked out at 4.34 µM in [10]; 4.92 µM in [1]; 3.11 µM in experiment [3]; 2.38 µM in experiment [4]; 3.07 µM in experiment [5]; 2.7 µM in experiment [6]. Besides, the TGI in experiment [8] turned out to be 2.6 µM; in [9] it was 1.33 µM.

With `COc1ccc(/C=C\c2cc(OC)c(OC)c(OC)c2)cc1NC(=O)/C=C/c1ccc(OC)c(OC)c1`, the GI50 in [10] is 5.51 µM; in experiment [1], 2.72 µM; in experiment [2], 16.5 µM; in [3], 4.15 µM; in experiment [4] it was 3.53 µM; in experiment [5] it was 7.41 µM. Further, the GI50 in experiment [6] was 2.89 µM; in [7] it was 3.46 µM; in [9], 4.19 µM. Further, the TGI in experiment [10], in experiment [1], in experiment [2], in experiment [3], in experiment [4] and in experiment [5] was greater than 100 µM in each case. Further, the TGI in experiment [6], in [7] and in experiment [9] was greater than 100 µM throughout.

Take `OCc1c(-c2cccs2)oc(-c2cccs2)c1CO`: the GI50 in experiment [1] was 21.1 µM; in [2], 38.7 µM; in [3], 67.5 µM; in experiment [4] it was 71.9 µM; in experiment [5], 26.6 µM; in experiment [6] it was 39 µM. Also, the GI50 was 28.4 µM in experiment [7], 27.7 µM in experiment [8] and 48.7 µM in experiment [9]. The TGI in experiment [1] is 45.6 µM; in experiment [2], greater than 100 µM; in experiment [3], greater than 100 µM; in experiment [4], greater than 100 µM; in [5] it was 52.7 µM; in experiment [6], greater than 100 µM. The total growth inhibition concentration (TGI) in experiment [7], in [8] and in [9] was greater than 100 µM throughout.

As for `COC(=O)NC1(NC(=O)OC)NC(=O)c2ccccc2N1`, the TGI in experiment [10], in experiment [1], in experiment [2], in experiment [3], in experiment [6] and in experiment [7] was greater than 100 µM each time. The TGI in [8] and in experiment [9] was greater than 100 µM each time.

Turning to `COc1ccc(CCN2CCCn3c2nc2ccccc2c3=O)cc1`, the concentration for 50% growth inhibition (GI50) is 0.362 µM in experiment [1]; 0.232 µM in experiment [2]; 0.629 µM in [3]; 0.0552 µM in [4]; 0.0762 µM in [5]; 0.0433 µM in [6]. For the same molecule, the GI50 in [7] was 0.0512 µM; in [8] it was 0.0597 µM; in experiment [9], 0.162 µM. For the same molecule, the TGI is greater than 100 µM in [1]; greater than 83.9 µM in [2]; greater than 100 µM in experiment [3]; greater than 100 µM in experiment [5]; 4.44 µM in experiment [6]; greater than 100 µM in experiment [7]. Besides, the total growth inhibition concentration (TGI) in experiment [8] is greater than 54.2 µM; in experiment [9], greater than 100 µM.

(Values after PubChem BioAssay (NCI).)
